Laboratory results from patent US9005575B2, “Arg-Gly-Asp-conjugated alpha-melanocyte stimulating hormone hybrid peptide for use in diagnosing and treating melanoma, including metastatic melanoma and methods related to same” (STC.UNM, priority 2009, dated 2015).
Values joined by “and” are separate entries in the source; they are usually repeats but may differ in a detail not shown here. Equal entries are not always repeated. Positions of bridges follow the written chain, without caps; N, C: chain ends. Non-standard residues stand in square brackets, D forms with d. Residues, ends and D or L forms follow the SMILES beside them.

Assays:
B16/F1 melanoma = assay: SPECT/CT imaging of melanoma; type: in vivo, C57 mouse; conditions: 2 h post-injection
Description: (§1) A B16/F1 melanoma-bearing C57 mouse was injected with 10.4 MBq of ^99mTc-RGD-Lys-(Arg^11)CCMSH via the tail vein. The mouse was anesthetized with 1.5% isoflurane for small animal SPECT/CT (Nano-SPECT/CT®, Bioscan) imaging 2 h post-injection. The 9-min CT imaging was immediately followed by the SPECT imaging of whole-body. The SPECT scans of 24 projections were acquired and total acquisition time was approximately 45 min. After the SPECT imaging, the mouse was euthanized with CO2 inhalation. Reconstructed data from SPECT and CT were visualized and co-registered using InVivoScope (Bioscan, Washington D.C.).
as §1, with “6.1” for “10.4”, “^99mTc-RGD-Arg-(Arg^11)CCMSH” for “^99mTc-RGD-Lys-(Arg^11)CCMSH”, “9-min.” for “9-min”

[1] = Urinary metabolites by HPLC; type: in vivo, C57 mouse; conditions: urine, 2 h post-injection, RP-HPLC
Description: (§2) Urinary metabolites of ^99mTc-RGD-Lys-(Arg^11)CCMSH were determined by injecting 3.7 MBq of ^9″Tc-RGD-Lys-(Arg^11)CCMSH into a B16/F1 melanoma-bearing C57 mouse through the tail vein. At 2 h after dose administration, the mouse was euthanized and the urine was collected. The radioactive metabolites in the urine were analyzed by injecting aliquots of urine into HPLC. A 20-minute gradient of 16-26% acetonitrile/20 mM HCl was used for the urine analysis.
as §2, with “^99mTc-RGD-Arg-(Arg^11)CCMSH” for “^99mTc-RGD-Lys-(Arg^11)CCMSH”, “^99mTc-RGD-Arg-(Arg^11)CCMSH” for “^9″Tc-RGD-Lys-(Arg^11)CCMSH”

[2] = tested on: B16/F1 murine melanoma cells; assay: Cellular internalization and efflux; type: cell-based; parameters: concentration or dose not given beside the values; conditions: for Activity internalized in the B16/F1 cells: 25° C.; for Cellular efflux: activity remained inside the cells: 2 h after incubating cells in culture medium
Description: Cellular internalization and efflux of ^99mTc-RGD-Lys-(Arg^11)CCMSH was evaluated in B16/F1 cells as previously described by Miao et al (27). After being washed once with binding media, B16/F1 cells in 24-well cell culture plates were incubated at 25° C. for 20, 40, 60, 90 and 120 min (n=4) in the presence of approximately 200,000 cpm of HPLC purified ^99mTc-RGD-Lys-(Arg^11)CCMSH. After incubation, the reaction media were aspirated and the cells were rinsed twice with 0.5 ml of ice-cold pH 7.4, 0.2% BSA/0.01 M PBS. Cellular internalization of ^99mTc-RGD-Lys-(Arg^11)CCMSH was assessed by washing the cells with acidic buffer [40 mM sodium acetate (pH 4.5) containing 0.9% NaCl and 0.2% BSA] to remove the membrane-bound radioactivity. The remaining internalized radioactivity was obtained by lysing the cells with 0.5 ml of 1 N NaOH for 5 min. Membrane-bound and internalized ^99mTc activities were counted in a gamma counter. Cellular efflux of ^99mTc-RGD-Lys-(Arg^11)CCMSH was determined by incubating B16/F1 cells with ^99mTc-RGD-Lys-(Arg^11)CCMSH for 2 h at 25° C., removing non-specific-bound radioactivity with 2×0.5 ml of ice-cold pH 7.4, 0.2% BSA/0.01 M PBS rinse, and monitoring radioactivity released into cell culture media. At time points of […], the radioactivities in media, on cell surface and in cells were separately collected and counted in a gamma counter.
Cellular internalization and efflux of ^99mTc-RGD-Arg-(Arg^11)CCMSH was evaluated in B16/F1 cells as previously described by Yang et al (17). After being washed once with binding medium, B16/F1 cells in 24-well cell culture plates were incubated at 25° C. for 20, 40, 60, 90 and 120 min (n=3) in the presence of approximately 200,000 cpm of HPLC purified 99″Tc-RGD-Arg-(Arg^11)CCMSH. After incubation, the reaction medium was aspirated and the cells were rinsed twice with 0.5 mL of ice-cold pH 7.4, 0.2% BSA/0.01 M PBS. Cellular internalization of ^99mTc-RGD-Arg-(Arg^11)CCMSH was assessed by washing the cells with acidic buffer [40 mM sodium acetate (pH 4.5) containing 0.9% NaCl and 0.2% BSA] to remove the membrane-bound radioactivity. The remaining internalized radioactivity was obtained by lysing the cells with 0.5 mL of 1 N NaOH for 5 min. Membrane-bound and internalized ^99mTc activities were counted in a gamma counter. Cellular efflux of ^99mTc-RGD-Arg-(Arg^11)CCMSH was determined by incubating B16/F1 cells with ^99mTc-RGD-Arg-(Arg^11)CCMSH for 2 h at 25° C., removing non-specific-bound radioactivity with 2×0.5 mL of ice-cold pH 7.4, 0.2% BSA/0.01 M PBS rinse, and monitoring radioactivity released into cell culture medium. At time points of 20, 40, 60, 90 and 120 min, the radioactivities on cell surface and in cells were separately collected and counted in a gamma counter.

Urinary radioactivity: remained intact [1] | Urinary radioactivity: transformed to more lipophilic metabolite(s) [1] [%] | SMILES | Visualization of flank melanoma tumors by SPECT/CT (B16/F1 melanoma) | Activity internalized in the B16/F1 cells ([2]; 20 min post incubation) [%] | Cellular efflux: activity remained inside the cells [2] | Activity internalized in the B16/F1 cells ([2]; 2 h incubation) [%]
Approximately 73% | 27 | CC(C)[C@H](NC(=O)[C@@H]1CCCN1C(=O)[C@H](CCCNC(=N)N)NC(=O)[C@H](CS)NC(=O)[C@H](Cc1c[nH]c2ccccc12)NC(=O)[C@H](CCCNC(=N)N)NC(=O)[C@@H](Cc1ccccc1)NC(=O)[C@H](Cc1c[nH]cn1)NC(=O)[C@H](CCC(=O)O)NC(=O)[C@H](CS)NC(=O)[C@H](CS)NC(=O)[C@H](CCCNC(=N)N)NC(=O)[C@@H]1CC(=O)N[C@@H](CCCNC(=N)N)C(=O)NCC(=O)N[C@@H](CC(=O)O)C(=O)N[C@H](Cc2ccc(O)cc2)C(=O)N1)C(N)=O [^99mTc-RGD-Arg-(Arg^11)CCMSH, metal not drawn] (RGD[dY]DRCCEH[dF]RWCRPV-NH2; lactam N-5) | visualized clearly | 62.35±4.08 | 58.99±2.03% | 81.36±0.96
Approximately 68% | 32 | CC(C)[C@H](NC(=O)[C@@H]1CCCN1C(=O)[C@H](CCCNC(=N)N)NC(=O)[C@H](CS)NC(=O)[C@H](Cc1c[nH]c2ccccc12)NC(=O)[C@H](CCCNC(=N)N)NC(=O)[C@@H](Cc1ccccc1)NC(=O)[C@H](Cc1c[nH]cn1)NC(=O)[C@H](CCC(=O)O)NC(=O)[C@H](CS)NC(=O)[C@H](CS)NC(=O)[C@H](CCCCN)NC(=O)[C@@H]1CC(=O)N[C@@H](CCCNC(=N)N)C(=O)NCC(=O)N[C@@H](CC(=O)O)C(=O)N[C@H](Cc2ccc(O)cc2)C(=O)N1)C(N)=O [^99mTc-RGD-Lys-(Arg^11)CCMSH, metal not drawn] (RGD[dY]DKCCEH[dF]RWCRPV-NH2; lactam N-5) | visualized clearly |  | 68.57±3.77% and ~69% | 85.93±1.22
